“Also recorded” adds a separate entry of the source.
How the values were obtained:
[1] = tested on: Gr (+) and Gr (-) microbacteria; conditions: in vitro; against Gr (+) and Gr (-) microbacteria; cited from earlier work
Text: Streptomyces aureus is a species of actinomycete belonging to the genus Streptomyces. Its spores are spherical or oval in shape, and the average diameter is about 0.9 μ in width and 1.2 μ in length. […] The morphological characteristics of the S. aureus depend on different nutritional environments. A previous study reported that many active secondary metabolites were produced by this actinomycete strain. Alkaloid azirinomycin and 3-methyl-2H-azirine-2-carboxylic acid isolated fr ...

[2] = tested on: recombinant ClpC1 protein; assay type: biochemical; conditions: compounds at 0.1 µM, 1.0 µM, and 10.0 µM, released phosphate, BIOMOL Green, absorbance at 620 nm; for Affection of ATPase activity of ClpC1: controls ecumicin and rufomycin, values only in Figure 5
[3] = cited from earlier work
Description: Compound 1 (7 mg) was afforded after purification using Sephadex and silica gel column chromatography, followed by thin-layer chromatography. This compound was obtained as a colorless powder.

HCV NS3 protease = conditions: cited from earlier work
Description: (§1) Compound 2 (3 mg) was yielded after column chromatography on normal-phase silica gel and the Sephadex LH20 column. Compound 2 (3 mg) was obtained as a white powder. […] The NMR data of compound 2 indicated a lactone ring structure consisting ...

leukocyte = conditions: cited from earlier work
Description: as §1

[4] = cited from earlier work; remark: listed apart in the source
Description: as §1

tuberculosis bacteria = conditions: through targeting the regulatory protein ClpC1; cited from earlier work
ClpC1 [5] = conditions: cited from earlier work; for ClpC1 inhibition: no reference at the place
ClpC1/CplP1/ClpP2 = conditions: via change in configuration of ClpC1; cited from earlier work
ClpC1 [6] = conditions: cited from earlier work
[7] = cited from earlier work; remark: listed apart in the source
Description: Compound 3 (12 mg) was obtained as a white solid. This compound was afforded after two reverse-phase column chromatography. […] In the ^1H NMR spectrum, ten signals of protons appeared at δH 3.57–3.54 (2H, m, α-H of Leu^1 & Leu^2), 3.50 (1H, d, J = 3.5, α-H of Ile), 3.43 (3H, d, J = 4.5, α-H of Ala^1, Ala^2, and Ala^3), 1.97–1.95 (1H, m, β-H of Ile), 1.83–1.77 (2H, m, γ-H of Leu^1, and Leu^2), 1.83–1.59 (4H, m, β-H of Leu^1, and Leu^ ...

CC1=NC1C(=O)O (centres unmarked) [azirinomycin]
antibiotic activity [1]: exhibited broad-spectrum antibiotic activity in vitro

O=C1CCC(=O)N(O)CCCCCNC(=O)CCC(=O)N(O)CCCCCNC(=O)CCC(=O)N(O)CCCCCN1 [compound 1, nocardamin]
Affection of ATPase activity of ClpC1 [2]: did not affect the ATPase activity of ClpC1
antimalarial activity [3]: antimalarial activity
siderophore activity [3]: showed siderophore activity

O=c1ccoc(=O)o1 [compound 2, 4H-1,3-dioxine-2,4-dione]
IC50 (HCV NS3 protease): 78.9 µM
leukocyte inhibitory effects (leukocyte): leukocyte inhibitory effects
antioxidant activity [4]: possesses antioxidant activity
Affection of ATPase activity of ClpC1 [2]: did not affect the ATPase activity of ClpC1

Cyclomarin A
anti-tuberculosis activity (tuberculosis bacteria): anti-tuberculosis activity through the mechanism of targeting the regulatory protein ClpC1 of tuberculosis bacteria

cyclomarin
effect on ATPase activity of ClpC1 (ClpC1 [5]): shown to affect the ATPase activity of ClpC1

ecumicin
effect on ATPase activity of ClpC1 (ClpC1 [5]): shown to affect the ATPase activity of ClpC1
ClpC1 inhibition (ClpC1 [5]): inhibited ClpC1
effect on proteolysis (ClpC1/CplP1/ClpP2): affecting proteolysis of ClpC1/CplP1/ClpP2
binding site on ClpC1 (ClpC1 [6]): binded to the allosteric site of ClpC1, causing a change in configuration

halolitoralin A [compound 3]
ATP hydrolysis effect of ClpC1 compared with ecumicin ([2]; comparison with standard compound ecumicin): similarly to ecumicin, but with lower ATP hydrolysis affection; also recorded: affected the ATPase activity of ClpC1 in a similar way to the standard compound ecumicin; also recorded: showed the effect on the ATPase hydrolysis activity of ClpC1, acting similar way to the antibiotic eucumicin
Affection of ATPase activity of ClpC1 [2]: effective for the ATPase hydrolysis of the ClpC1 protein
anthelmintic activity [7]: anthelmintic activity
antimicrobial activity [7]: potent antimicrobial activity
antitumor activities ([7]; in vitro): antitumor activities in vitro

lassomycin
effect on ATPase activity of ClpC1 (ClpC1 [5]): shown to affect the ATPase activity of ClpC1
ClpC1 inhibition (ClpC1 [5]): inhibited ClpC1

rufomycin
effect on ATPase activity of ClpC1 (ClpC1 [5]): shown to affect the ATPase activity of ClpC1
ClpC1 inhibition (ClpC1 [5]): inhibited ClpC1

— article PMC10856564, “Metabolites from Streptomyces aureus (VTCC43181) and Their Inhibition of Mycobacterium tuberculosis ClpC1 Protein” (Molecules, 2024)
